The values that follow come from patent US20060194819A1, “Activation specific inhibitors of nf-kb and method of treating inflammatory processes in cardio-vascular diseases” (PROCORDE GMBH, priority 2003, published 2006).

Data set [1] relates to I KappaB alpha phosphorylation. Put plainly: P-IkBalpha detection in Western blot of HeLa cell lysates after TNF alpha stimulation. As to conditions: HeLa cells, 10 and 100 μM. Type of data set: cell-based. The protocol:
P-IkBα Detektion in Western-Blot Protocol: HeLa cells were maintained in Dulbecco's modified Eagle's medium (Invitrogen) supplemented with 10% fetal bovine serum, 2 mM L-glutamine, penicillin (50 units/ml) and streptomycin (50 μg/ml). 24 h before treatment with different compounds HeLa cells were plated at a density of 5×10^6 per well in 100-mm cell culture dishes to 90% confluences.
The cells were incubated with different drugs at the concentration indicated for 1 h, washed twice with PBS and stimulated with 20 ng/ml TNF alpha (Roche). After 7 min the cells were washed twice with ice cold PBS followed by scraping and transferring into a 1.5 ml micro centrifuge tube. After centrifugation by 2000 rpm for 2 min by 4° C. the PBS supernatant was removed and 200 μl lysis-buffer (10 mM Hepes, pH 7.9, 0.1% NP40, 10 mM, 300 mM Sucrose, 10 mM KCl, 15 mM MgCl2, 1 mM DTT, 0.5 mM PMSF and antipain, aprotinin, leupeptin each 0.75 μg/ml (Sigma) was added to the pellet. The resuspended pellet was incubated on ice for 5 min and centrifuged at 13000 g for 30 s. 30 μl of the supernatant, cytosolic extract, was diluted with Laemmli-buffer (2% SDS, 2% 2-Mercaptoethanol, 0.01% Bromophenol blue, 8% Glycerine), heated by 60° C. for 10 min and loaded to a 4-20% polyacrylamid gels (BioRad). After electrophoresis the proteins were transferred to a nitrocellulose membrane using the wet blotting technique. First the membrane was blocked with Roti-Block (Roth) and afterwards incubated with monoclonal antibodies against P-IkBalpha (Santa Cruz Biotechnology, used at 1:200 dilution). This incubation was followed by the appropriate horseradish peroxidase-conjugated secondary antibody (Dianova) at 1:10000 dilution. Antibody binding was visualized on x-ray film using the Western blot Chemiluminescent Reagent Detection Kit (Santa Cruz).
On the technique in general: In western blotting, separated proteins are transferred to a membrane and probed.

The next data set concerns HeLa cells. Put plainly: Cell viability, WST-1 assay. Type of data set: cell-based. On the procedure: […] The medium was changed and 10 μL of the WST-1 reagent was added to each well. After 2 h the absorption of 450 nm was measured in an Elisa-reader.
Data set [2] deals with ICAM expression in HUVEC cells. Nature of the data set: ICAM expression in HUVEC cells by FACS analysis. The conditions noted are these: Homo sapiens, read-out: IC50 for inhibition of ICAM expression. Type of data set: cell-based. On the procedure: HUVEC cells were seeded in 6-well plates 1×10^6 cells/well. After 24 h the cells were treated with different concentration of compound 68. After 1 h the medium was removed and the cells incubated with either IL-1 (100 pg/ml) or TNF alpha (1 ng/ml) for a total of 4 h. Thereafter the cells were harvested with trypsin, washed with PBS and centrifuged with 1000 rpm for 5 min. The pellet was resuspended in 50 μl PBS and 5 μl CD54-PE antibody (anti-ICAM antibody from Beckman/Coulter/Immunotech). After washing twice in PBS, the ICAM cell surface expression was analysed by a FACScan (Becton Dickinson).

The nature of data set [3]: Solubility tests, 1.2 mg in 500 μl of each solvent. In kind it is physicochemical. On the procedure:
Solubility tests were performed with aliquots of compound 4 (1.2 mg) and 500 μl of each solvent.

Data set [4] in a line: Isomerization in solution observed by NMR. Type of data set: physicochemical. The source says: These signals were tentatively attributed to a cis/trans isomer of compound 4. The signal intensities of this isomer accounted for approximately 10% of the signals due to the major product. In acetone-db, this isomerization was slower and occurred within days.
Another data set has as its system NF-kappaB. Nature of the data set: Electrophoretic mobility shift assay (EMSA) for NF-kappaB in LPS stimulated THP-1 monocytic cells. In kind it is cell-based. As to conditions: THP-1 cells; for NF-kappaB activation: LPS. The protocol: Electrophoretic Mobility Shift Assay (EMSA): THP-1 monocytic cells (DSM, Braunschweig, Germany) were maintained in suspension in RPMI 1640 (Glutamax-1, low endotoxin) containing 7% fetal calf serum (FCS) (Myoclone super plus, low endotoxin), 100 units/ml penicillin, and […] streptomycin (Life Technologies, Inc., Eggenstein, Germany). For the experiments, the cells were plated at a density of 3×10^6 per well in 6-well culture dishes. Nuclear extracts were prepared by harvesting cells by centrifugation at 1200 rpm for 7 min at 4° C. The cells were resuspended by adding 1 ml ice cold PBS and transferred into a microcentrifuge tube. After centrifugation at 2000 g for 2 min by 4° C. the pellet was lysed in 50 μl buffer A (10 mM Hepes, pH 7.9, 0.1% NP40, 10 mM, 300 mM Sucrose, 10 mM KCl, 15 mM MgCl2, 1 mM DTT, 0.5 mM PMSF and antipain, aprotinin, leupeptin each 0.75 μg/ml (Sigma)). After 5 min incubation on ice and centrifugation at 16000 g for 5 sec the pellet was washed with 100 μl buffer A. The nuclear pellet was resuspended with 100 μl buffer B (20 mM Hepes, pH 7.9, 100 mM KCl, 100 mM NaCl, 1 mM DTT, 20% Glycerol, 0.5 mM PMSF and antipain, aprotinin, leupeptin each 0.75 μg/ml (Sigma)) and sonicated for 10 sec. The probe was pulse centrifuged at 16000 g for 5 sec. The nuclear extract was aliquoted and snap-freeze in liquid N2. Nuclear extracts ([…] of protein) were incubated with radiolabeled DNA probes (10 ng; 10^5 cpm) for 30 min at room temperature in […] of binding buffer (20 mM HEPES, pH 7.9, 50 mM KCl, 1 mM dithiothreitol, 0.5 mM EDTA, 10% glycerol, 1 mg/ml bovine serum albumin, 0.2% Nonidet P-40, 50 ng of poly(dI-dC)/ml). […] The binding of Sp-1 and AP-1 was also analysed by EMSA using specific consensus oligonucleotides (Promega, Heidelberg, Germany) that were labeled with [γ-^32P]ATP (>5,000 Ci/mmol, NEN Life Science Products) and T4 polynucleotide kinase (Boehringer Mannheim). Gels were dried and analysed by autoradiography. […]
(Mobility shift assays separate free from complexed probe on a gel.)

Where two headings read alike, the source gives them in different places.

By IC50 is commonly meant the concentration that inhibits the measured activity by half. Consider `O=C(NN=Cc1ccccc1O)c1ccc([N+](=O)[O-])o1` [COM 68, 5-Nitro-furan-2-carboxylic acid (2-hydroxy-benzylidene)-hydrazide], for which the “effect on IkappaB phosphorylation (Western blot), comparison of COM 73 and COM 54 family” value in data set [1] is “no effect”. For the same molecule, the “cell viability (WST staining)” value with HeLa cells (HeLa cells, 33 and 100 μmol/L, one day) is “decreased cell viability”. The IC50 in data set [2] (after IL-1 stimulation (100 pg/ml)) turned out to be 7.8 µM; in data set [2] (after TNF alpha stimulation (1 ng/ml)) it was 4.5 µM. The Solubility result is on record as “++++ (++++: 100% dissolved)” in data set [3] (Acetone); “++++ (++++: 100% dissolved)” in data set [3] (DMSO); “− (−: 0% dissolved)” in data set [3] (H2O); “+++ (+++: 80% dissolved)” in data set [3] (MeCN); “+ (+: 20% dissolved)” in data set [3] (MeOH). Further, in data set [4] (DMSO-d6, rt), the “signal intensities of the isomer relative to the major product” value is “approximately 10%”. Besides, the “time to appearance of second set of NMR signals (cis/trans isomer)” value in data set [4] (DMSO-d6, rt) is reported as “within minutes”. In addition, the time of isomerization result in data set [4] (acetone-d6) is “within days”.

On to `O=C(N/N=C/c1ccc(/C=N/NC(=O)c2ccc([N+](=O)[O-])o2)cc1)c1ccc([N+](=O)[O-])o1` [Compound 54], for which the “effect on IkappaB phosphorylation (Western blot), comparison of COM 73 and COM 54 family” value in data set [1] is listed as “no effect”. Also, the NF-kappaB activation result with NF-kappaB (12.5 μM and 25 μM) was “significantly affected”; in the data set on NF-kappaB (50 μM and 100 μM) it was “nearly completely abolished”. In addition, the “reduced NF-kappaB-release” value in the data set on NF-kappaB (100 μM, 1 h, LPS 1 μg/ml) turned out to be 95%. Besides, in the data set with HeLa cells (HeLa cells, 30 μM, 3 h), the “decrease in metabolic activity compared with untreated control (WST-1)” value is “no significant decrease”. For the same molecule, the “influence on cell viability (WST staining)” value in the data set on HeLa cells (HeLa cells, 0.3 to 100 μmol/L, one day) is “no negative influence”. The “toxicity for HeLa cells (WST-1)” value in the data set with HeLa cells (concentrations and conditions of the described assays) is “not found to be toxic”.
